Source: PubChem BioAssay (NCI)
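Compound exposure: 48 hours, 5 concentrations, 96-well plates. At the GI50, growth is halved. TGI is the concentration that stops growth completely.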

Experiments:
Assay in all cases: growth of human tumour cells (NCI), 48 h
UO-31 renal = system: UO-31 renal
SF-295 CNS = system: SF-295 CNS
LOX IMVI melanoma = system: LOX IMVI melanoma
EKVX NSCLC = system: EKVX NSCLC
HT29 colon = system: HT29 colon
K-562 leukemia = system: K-562 leukemia
SF-539 CNS = system: SF-539 CNS
786-0 renal = system: 786-0 renal
A498 renal = system: A498 renal
MALME-3M melanoma = system: MALME-3M melanoma

Row | SMILES | TGI (UO-31 renal) | TGI (SF-295 CNS) | TGI (LOX IMVI melanoma) | TGI (EKVX NSCLC) | TGI (HT29 colon) | TGI (K-562 leukemia) | TGI (SF-539 CNS) | TGI (786-0 renal) | GI50 (UO-31 renal) | GI50 (SF-295 CNS) | GI50 (LOX IMVI melanoma) | GI50 (A498 renal) | TGI (A498 renal) | GI50 (HT29 colon) | GI50 (K-562 leukemia) | GI50 (MALME-3M melanoma) | TGI (MALME-3M melanoma) | GI50 (SF-539 CNS) | GI50 (786-0 renal) | GI50 (EKVX NSCLC)
1 | c1cncc(C(Nc2cccc3cccnc23)Nc2cccc3cccnc23)c1 | > 100 µM | > 100 µM | > 100 µM | > 100 µM | > 100 µM | > 100 µM | > 100 µM | > 100 µM | – | – | – | – | – | – | – | – | – | – | – | –
2 | Cc1nn2c(/C=C3/C(=O)Nc4ccc(Cl)cc43)c(-c3ccccc3)nc2s1 | 13.2 µM | 5.76 µM | 14.8 µM | – | 13.9 µM | 20.6 µM | 6.54 µM | 5.8 µM | 1.07 µM | 2.02 µM | 3.52 µM | 1.63 µM | 10.6 µM | 4.03 µM | 3.85 µM | 2.17 µM | 5.57 µM | 2.25 µM | 2.37 µM | –
3 | COc1ccc2nc(NC(=O)C(=O)CC(=O)c3ccc(Cl)cc3)sc2c1 | > 100 µM | > 100 µM | – | > 100 µM | > 100 µM | – | 98.4 µM | > 100 µM | – | – | – | – | > 100 µM | – | – | – | > 100 µM | – | – | –
4 | COc1ccc(/C=C(\C#N)c2cc(OC)c3c(c2)OCO3)cc1 | > 55.8 µM | 21 µM | > 100 µM | > 100 µM | 0.694 µM | > 100 µM | 11.5 µM | 17.2 µM | 0.251 µM | < 0.01 µM | 0.0271 µM | < 0.01 µM | 0.193 µM | < 0.01 µM | < 0.01 µM | – | – | < 0.0131 µM | < 0.0215 µM | 1.98 µM
5 | NC(=NC1CCCCCC1)c1ccc(N2CCN(c3ccc(C(N)=NC4CCCCCC4)cc3)CC2)cc1 | > 50 µM | 19.9 µM | 20.3 µM | 23 µM | > 50 µM | > 50 µM | – | 43.9 µM | 33.7 µM | 3.89 µM | 3.05 µM | – | – | 9.3 µM | 4.57 µM | – | – | – | 10.7 µM | 1.44 µM
6 | Cc1cc(N/N=C/c2nc(-c3ccccc3)oc2C)c2cc(Cl)ccc2n1 | 3.07 µM | 3.2 µM | – | 4.53 µM | 3.59 µM | – | 3.17 µM | 3.38 µM | 1.61 µM | 1.69 µM | – | 3.2 µM | 18.1 µM | 1.82 µM | – | 1.94 µM | 3.51 µM | 1.7 µM | 1.64 µM | 1.99 µM
7 | Cc1nn2c(/C=C3/C(=O)Nc4ccccc43)c(-c3ccc(Cl)cc3)nc2s1 | > 50 µM | 31.8 µM | 21.4 µM | > 50 µM | 27 µM | > 50 µM | 1.27 µM | 24.2 µM | > 50 µM | 10.3 µM | 10.6 µM | > 50 µM | > 50 µM | 11.9 µM | > 50 µM | – | – | 0.0174 µM | 9.95 µM | 20.3 µM
8 | COc1cc(-c2cc(-c3nc4ccccc4[nH]3)[nH]n2)cc(OC)c1OC | 12.2 µM | 14.7 µM | – | – | 51.2 µM | > 100 µM | 18.9 µM | 15.5 µM | 2.21 µM | 3.13 µM | – | 1.51 µM | 27.1 µM | 7.16 µM | 3.08 µM | 1.95 µM | 8.49 µM | 5.11 µM | 3.66 µM | –
9 | Nc1ncc(-c2ccc(C(F)(F)F)cc2)c(NC2CCCCCC2)n1 | > 100 µM | > 100 µM | – | – | > 100 µM | > 100 µM | > 100 µM | > 100 µM | 13 µM | 24.1 µM | – | 13.4 µM | 79.3 µM | 40.6 µM | 21 µM | 18.6 µM | 81.8 µM | 52.5 µM | 32.2 µM | –
10 | CN(C)CC#Cc1cccc(C(=O)c2cnn(-c3ccc(F)cc3)c2N)c1 | > 25 µM | > 25 µM | > 25 µM | – | > 25 µM | > 25 µM | > 25 µM | > 25 µM | > 25 µM | > 20.6 µM | > 25 µM | > 21.3 µM | > 25 µM | > 19.5 µM | > 17.8 µM | > 25 µM | > 25 µM | > 25 µM | > 25 µM | –
11 | Cc1c(Cl)cccc1NC(=O)c1sc2nc3c(cc2c1N)CCCCCC3 | > 50 µM | 13 µM | > 50 µM | > 50 µM | 6.56 µM | > 50 µM | 7.93 µM | 14.7 µM | 1.51 µM | 0.168 µM | 0.3 µM | 0.202 µM | 9.16 µM | 0.188 µM | 0.113 µM | – | – | 0.168 µM | 0.223 µM | 0.234 µM
